This test deals with T1, F508del (Homo sapiens, UniProt P13569, DEL508-508).
T1 construct: expressed in transfected cells
The experiment in a line: Protocol 2: FRET membrane potential optical assay (VIPR), identification of correction compounds. The format is cell-based. Put shortly:
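FRET read-out (CC2-DMPE donor, DiSBAC2(3) voltage-sensitive acceptor) of membrane depolarization on VIPR II. Corrector candidates incubated 16 hrs at 37° C. with NIH3T3 cells expressing F508del; temperature correction at 27° C. as positive control; stimulation by 10 μM forskolin, 20 μM genistein, chloride-free gluconate bath.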

The mark [1] stands for this setting: Table 3, compounds of Table 1 as modulators of CFTR activity, protocol not stated.
Setting [2] is: F508del CFTR modulator activity, compounds of Table 1, read-out: EC30.

Read-outs that look alike come from different tables or passages of the source. Where only a bound is given, the exact number is not on record here.

For orientation: EC30 means the point of the concentration-response curve where the effect stands at 30%.

T1 sequence (P13569 with tags, fused parts or gaps DEL508-508): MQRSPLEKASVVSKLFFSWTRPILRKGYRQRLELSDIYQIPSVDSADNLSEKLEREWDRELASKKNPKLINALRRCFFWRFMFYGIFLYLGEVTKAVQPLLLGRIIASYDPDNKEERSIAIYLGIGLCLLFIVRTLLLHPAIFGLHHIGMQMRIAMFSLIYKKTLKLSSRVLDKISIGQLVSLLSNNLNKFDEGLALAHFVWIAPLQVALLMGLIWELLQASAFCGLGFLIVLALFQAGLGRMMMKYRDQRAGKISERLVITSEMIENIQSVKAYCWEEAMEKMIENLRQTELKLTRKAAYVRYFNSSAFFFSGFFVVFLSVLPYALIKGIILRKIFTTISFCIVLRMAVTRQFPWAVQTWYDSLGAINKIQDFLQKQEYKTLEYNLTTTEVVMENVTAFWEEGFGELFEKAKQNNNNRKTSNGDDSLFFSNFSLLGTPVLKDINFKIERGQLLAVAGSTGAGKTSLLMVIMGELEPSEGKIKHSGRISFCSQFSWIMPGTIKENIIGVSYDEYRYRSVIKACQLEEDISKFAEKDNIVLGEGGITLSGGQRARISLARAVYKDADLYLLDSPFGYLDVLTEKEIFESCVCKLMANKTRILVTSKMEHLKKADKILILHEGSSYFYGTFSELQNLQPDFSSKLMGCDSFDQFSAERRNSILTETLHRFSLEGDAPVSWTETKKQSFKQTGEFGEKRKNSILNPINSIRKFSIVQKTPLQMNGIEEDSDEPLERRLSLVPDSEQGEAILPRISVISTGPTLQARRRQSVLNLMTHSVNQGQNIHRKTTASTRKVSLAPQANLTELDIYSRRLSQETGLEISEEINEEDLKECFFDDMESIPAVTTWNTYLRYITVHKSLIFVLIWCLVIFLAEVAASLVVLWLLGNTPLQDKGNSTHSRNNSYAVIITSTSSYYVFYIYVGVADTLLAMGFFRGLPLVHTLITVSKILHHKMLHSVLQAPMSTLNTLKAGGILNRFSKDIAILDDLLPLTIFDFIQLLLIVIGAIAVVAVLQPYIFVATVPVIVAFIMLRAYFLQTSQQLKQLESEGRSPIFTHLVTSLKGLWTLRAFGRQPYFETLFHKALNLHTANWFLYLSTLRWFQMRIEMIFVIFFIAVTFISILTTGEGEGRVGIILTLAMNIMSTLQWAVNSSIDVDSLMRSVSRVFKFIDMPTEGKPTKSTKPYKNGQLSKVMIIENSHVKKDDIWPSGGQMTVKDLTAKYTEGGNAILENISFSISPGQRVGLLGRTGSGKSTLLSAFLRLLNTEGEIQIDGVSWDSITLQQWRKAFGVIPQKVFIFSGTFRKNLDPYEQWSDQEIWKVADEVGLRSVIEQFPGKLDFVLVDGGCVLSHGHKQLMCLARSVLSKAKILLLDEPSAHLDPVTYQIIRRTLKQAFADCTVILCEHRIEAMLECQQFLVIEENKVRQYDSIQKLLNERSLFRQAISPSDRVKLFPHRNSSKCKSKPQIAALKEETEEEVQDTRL

For `Cc1cc(C)c(Oc2nc(C(C)(C)C)ccc2C(=O)NS(=O)(=O)c2cccc3c2ccn3C)c(C)c1` [Compound 146, 6-tert-butyl-N-(1-methylindol-4-yl)sulfonyl-2-(2,4,6-trimethylphenoxy)pyridine-3-carboxamide], the EC30 entry under setting [1] is on record as “+++ (“+++” means <3 uM)”.
For the compound `CC1CN(c2ncccc2C(=O)NS(=O)(=O)c2cccc(N3CCCC3C(F)(F)F)n2)C(C)(C)C1` (centres unmarked) [Compound 2055, N—[[6-[2-(trifluoromethyl)pyrrolidin-1-yl]-2-pyridyl]sulfonyl]-2-(2,2,4-trimethylpyrrolidin-1-yl)pyridine-3-carboxamide], the EC30 under setting [2] was less than 3000 nM.
On to `CC(C)Oc1ccc(-c2ccc(C(=O)NS(=O)(=O)c3ccn[nH]3)c(N3C[C@H](C)C[C@H](C)C3)n2)cn1` [Compound 446, 2-[(3R,5S)-3,5-dimethyl-1-piperidyl]-6-(6-isopropoxy-3-pyridyl)-N-(1H-pyrazol-5-ylsulfonyl)pyridine-3-carboxamide], for which the EC30 entry under setting [1] is recorded as “+++ (“+++” means <3 uM)”.
With `C[C@@H]1CN(c2nc(C(C)(C)C)c(C3=CCN(C(=O)CC(C)(C)C)CC3)cc2C(=O)NS(=O)(=O)c2cccc(N)n2)C(C)(C)C1` [Compound 2344, N-[(6-amino-2-pyridyl)sulfonyl]-6-tert-butyl-5-[1-(3,3-dimethylbutanoyl)-3,6-dihydro-2H-pyridin-4-yl]-2-[(4S)-2,2,4-trimethylpyrrolidin-1-yl]pyridine-3-carboxamide], under setting [2], the concentration for an effect of 30% (EC30) was less than 3000 nM.
In the case of `COc1cc(CO)cc(-c2ccc(C(=O)NS(=O)(=O)c3ccc[nH]c3=O)c(N3C[C@@H](C)CC3(C)C)n2)c1` [Compound 2247, 6-[3-(hydroxymethyl)-5-methoxy-phenyl]-N-[(2-oxo-1H-pyridin-3-yl)sulfonyl]-2-[(4S)-2,2,4-trimethylpyrrolidin-1-yl]pyridine-3-carboxamide], the EC30 under setting [2] fell in the range of 3000 to 10000 nM.
For the compound `CC(C)COc1cc(F)cc(-c2ccc(C(=O)NS(=O)(=O)c3cccc(N)n3)c(N3CC=CC3)n2)c1` [Compound 453, N-[(6-amino-2-pyridyl)sulfonyl]-2-(2,5-dihydropyrrol-1-yl)-6-(3-fluoro-5-isobutoxy-phenyl)pyridine-3-carboxamide], the EC30 result under setting [1] is on record as “+++ (“+++” means <3 uM)”.
As for `Cc1cc(C)c(Oc2nc(-c3ccc(Cl)c(OC(C)C)c3)ccc2C(=O)NS(=O)(=O)c2cccc(N)n2)c(C)c1` [Compound 281, N-[(6-amino-2-pyridyl)sulfonyl]-6-(4-chloro-3-isopropoxy-phenyl)-2-(2,4,6-trimethylphenoxy)pyridine-3-carboxamide], the EC30 result under setting [1] is given as “+++ (“+++” means <3 uM)”.
For the compound `Cc1cc(C)c(Cn2nc(OC(C)c3ccccc3)cc2C(=O)NS(=O)(=O)c2cccc(N)c2)c(C)c1` (centres unmarked) [Compound 278, N-(3-aminophenyl)sulfonyl-5-(1-phenylethoxy)-2-[(2,4,6-trimethylphenyl)methyl]pyrazole-3-carboxamide], the EC30 result under setting [1] is “++ (“++” means between 3 uM and 10 uM)”.
Regarding `COc1ccc(COc2cccc(S(=O)(=O)NC(=O)c3cccnc3N3CC(C)CC3(C)C)n2)cc1` (centres unmarked) [Compound 2428, N—[[6-[(4-methoxyphenyl)methoxy]-2-pyridyl]sulfonyl]-2-(2,2,4-trimethylpyrrolidin-1-yl)pyridine-3-carboxamide], under setting [2], the EC30 was less than 3000 nM.
The same measure, in the same setting: the result for `CC(C)COc1cc(F)cc(-c2ccc(C(=O)NS(=O)(=O)c3cccc(N)n3)c(C3=CC(C)CC3(C)C)n2)c1` (single isomer, unassigned) [Compound 2039, N-[(6-amino-2-pyridyl)sulfonyl]-6-(3-fluoro-5-isobutoxy-phenyl)-2-(3,5,5-trimethylcyclopenten-1-yl)pyridine-3-carboxamide] reads less than 3000 nM.
Consider `Cc1cc(C)c(CN2CCc3ccccc3CC2C(=O)NS(=O)(=O)c2cccc(N3CCOCC3)n2)c(C)c1` (centres unmarked) [Compound 669, N-[(6-morpholino-2-pyridyl)sulfonyl]-3-[(2,4,6-trimethylphenyl)methyl]-1,2,4,5-tetrahydro-3-benzazepine-4-carboxamide], for which, under setting [1], the EC30 entry is listed as “+++ (“+++” means <3 uM)”.

(Values after patent US10758534B2 (Vertex Pharmaceuticals Incorporated, priority 2014, dated 2020).)
